Data published in patent publication US20160221932A1, “Methods and Uses of Melatonin Ligands” (priority 2013, published 2016).
Entries after “also recorded” stand apart in the source; their conditions may differ.

Key:
Wistar rats [1] = assay: formalin test; type: in vivo, rat; conditions: 30 min prior to test
Method: (§1) Animals: Wistar rats (150-250 g, Charles-River Saint-Constant, Quebec, Canada) were used for the formalin test, hot plate test and L5-L6 spinal nerves ligature model. The animals were housed at constant room temperature and humidity under a 12 h light/dark cycle (lights on at 7 AM). Food and water were available ad libitum.
Formalin Test: Antinociception was assessed using the formalin test (Dubuisson and Dennis, 1977). Rats were placed in open Plexiglas observation chambers for 60 min to allow them to acclimatize to their surroundings; then they were removed for formalin administration. Rats were gently restrained while the dorsal surface of the right hindpaw was injected with […] of 1% formalin (37% formaldehyde solution further diluted in saline solution) with a 30-gauge needle. The animals were returned to the chambers and nociceptive behavior was observed immediately after formalin injection. Mirrors were placed in each chamber to enable unhindered observation. Licking/biting behavior directed to the formalin injected paw was scored in 5 min intervals considering number and duration of the licking. Cumulative behavior for the total duration of the test as well as the first (0-10 min) and second phase (20-50 min) was then analyzed (Sufka et al., 1998).The initial acute phase (0-10 min) was followed by a relatively short quiescent period, which was then followed by a prolonged tonic response (15-60 min). The first phase is considered to be the result of direct stimulation of nociceptors, whereas inflammation process contributes to phase 2 activity (Hunskaar and Hole, 1987). At the end of the experiment the rats were sacrificed in a CO2 chamber.
(§2) Statistical Analysis: Data analysis was done using SigmaPlot 12 (Systat Software, Inc.). Two-way ANOVA for repeated measures was used to analyze data from L5-L6 models using treatments (between) and testing time (within) as factors. One-way ANOVA was used to analyze AUC in the L5-L6 spinal nerves ligation model. One-way ANOVA was used for formalin and hot-plate tests. Post-hoc analyses were performed using Bonferroni t-test comparisons or Student-Newman-Keuls (SNK) test. All data are expressed as mean±Standard Error of the Mean (SEM). P<0.05 was considered significant.

[2] = tested on: rats with L5-L6 spinal nerves ligation; assay: L5-L6 spinal nerves ligature model, von Frey paw withdrawal threshold; type: in vivo, rat; conditions: for AUC of the antiallodynic effect across 8 h: mean±SEM, VEH 36.24±1.8 g
Method: as §1
L5-L6 Spinal Nerves Ligature: Nerve injury results in abnormal pain perception, known as neuropathic pain, which is associated with hyperalgesia (high pain sensibility) and allodynia (pain perception induced by innocuous stimuli) (Campbell and Meyer, 2006). The rat model for neuropathic pain develop by Kim and Chung (Kim and Chung, 1992) was used in which the L5 and L6 spinal nerves were ligated and two weeks later allodynia was measured by paw stimulation with von Frey filaments. Briefly, animals were anesthetized with a mixture of ketamine/xylazine/acepromazine (i.p.). Following surgical preparation and exposure of the dorsal vertebral column, the left L5 and L6 spinal nerves were exposed and tightly ligated with 3.0 chromic catgut suture distal to the dorsal root ganglion. For sham-operated rats, the nerves were exposed but not ligated. The incisions were closed using 3.0 vicryl sutures, and the animals were allowed to recover for 13 days.
On day 14 after surgery, rats were singularly placed in a test chamber (clear plastic, wire mesh-bottomed cage) and allowed to acclimatize for 30-40 min. Von Frey filaments (Stoelting, Wood Dale, Ill., USA) were used to measure the 50% paw withdrawal threshold using the up and down method by (Chaplan et al., 1994). […] Lifting of the paw indicated a positive response and prompted the use of the next weaker filament, whereas absence of paw withdrawal after 5 s indicated a negative response and prompted the next filament of increasing weight. This paradigm continued for four more measurements after the initial change of the behavioral response, or until five consecutive negative (assigned a score of 15 g), or four consecutive positive (assigned a score of 0.25 g) responses. The resulting score were used to calculate the 50% response threshold by using the formula proposed by Dixon et al., 1980.
Allodynia was considered to be present when paw withdrawal thresholds were less than 4 g. (Chaplan et al., 1994). All nerve-ligated rats were verified to be allodynic, responding to a stimulus of less than 4 g. Rats without allodynia were excluded. Following the determination of the basal response, tactile allodynia was assessed at 0.5, 1, 2, 3, 4, 5, 6, 7 and 8 h post-administration for each treatment below described.
[…] […] Another group of rats received only the vehicle (VEH) consisting on a 70% DMSO/saline solution (0.9% NaCl). All treatments were administered in a single subcutaneous injection with a volume of 1 ml. Rats were tested at 0 h (basal withdrawal threshold) and 0.5, 1, 2, 3, 4, 5, 6, 7 and 8 h post-treatment administration.
as §2

Wistar rats [3] = assay: hot plate test; type: in vivo, rat
Method: Animals: Wistar rats (150-250 g, Charles-River Saint-Constant, Quebec, Canada) were used for the formalin test, hot plate test and L5-L6 spinal nerves ligature model. The animals were housed at constant room temperature and humidity under a 12 h light/dark cycle (lights on at 7 AM). Food and water were available ad libitum. Hot plate test: The hot-plate test was performed by using an electronically controlled hot-plate (Ugo Basile, Italy). The initial temperature was 38° C. A near linear increase in temperature (3° C. per min) was obtained by turning the heating adjustment to maximum. The temperature at which the fast hindpaw lick occurred was recorded as the nociceptive end-point. If no hindpaw lick was observed, the test was terminated at 52° C., and this cut-off value was used in the analysis. The plate was wiped with a wet cloth, and a fan located behind the plate allowed rapid cooling so that testing could be conducted every 7.5 min. Statistical Analysis: Data analysis was done using SigmaPlot 12 (Systat Software, Inc.). Two-way ANOVA for repeated measures was used to analyze data from L5-L6 models using treatments (between) and testing time (within) as factors. One-way ANOVA was used to analyze AUC in the L5-L6 spinal nerves ligation model. One-way ANOVA was used for formalin and hot-plate tests. Post-hoc analyses were performed using Bonferroni t-test comparisons or Student-Newman-Keuls (SNK) test. All data are expressed as mean±Standard Error of the Mean (SEM). P<0.05 was considered significant.

SNI rats = assay: spared nerve injury (SNI) model, dynamic plantar aesthesiometer; type: in vivo, rat; conditions: 150 mg/kg s.c.
Method: Spared nerve injury (SNI) of the sciatic nerve and measurement of allodynia with the dynamic plantar aesthesiometer. SNI was performed according to the method of Decosterd and Woolf (2000). Rats were anaesthetized with sodium pentobarbital (50 mg/kg i.p.). The sciatic nerve was exposed at mid-thigh level […] to the trifurcation and freed of connective tissue; the three peripheral branches (sural, common peroneal, and tibial nerves) of the sciatic nerve were exposed without stretching nerve structures. Both tibial and common peroneal nerves were ligated and transected together. The sham procedure consisted of the same surgery without ligation and transection of the nerves. Fourteen days after SNI, mechanical allodynia was measured using the dynamic plantar aesthesiometer (Ugo Basile, Varese, Italy). Each rat was placed and allowed to move freely in one of the two compartments of the enclosure positioned on a metal grid surface. A mechanical stimulus was delivered to the plantar surface of the rat's hind paw through the metal grid by a steel filament (Von Frey-type), connected to a movable touch-stimulator unit exerting an increasing force of 3 g per second. The force inducing paw withdrawal was recorded to the nearest 0.1 g. Nociceptive responses for mechanical sensitivity (mechanical withdrawal threshold) were measured in grams before and after vehicle or drug administration by an experimenter blind to the treatments. A single trial at each time point was performed on the ipsilateral hind paw to SNI surgery for each rat. Nociceptive responses for mechanical sensitivity were expressed as mean±SEM (g). Groups of 6-7 rats per treatment were used, with each animal being used for one treatment only.
as §2

human-cloned MT1 = biological target: T1, human-cloned MT1 (Homo sapiens, UniProt P48039); assay: impedance assay in CHO cells expressing human-cloned MT1 (functional activity); type: cell-based; as to MT1 Activity: key: A = ago0nist; PA = partial agonist; ANT = antagonits
T1 construct: expressed in transfected cells

human MT2 receptor = biological target: T2, human MT2 receptor (Homo sapiens, UniProt P49286); assay: 2-[125I]iodomelatonin competition binding, human MT2 in CHO cells; conditions: human MT2 stably expressed in CHO cells; calculated from IC50 by Cheng and Prusoff; read-out: MT2 pKi (converted)
T2 construct: expressed in transfected cells
T2 sequence (P49286 1-362): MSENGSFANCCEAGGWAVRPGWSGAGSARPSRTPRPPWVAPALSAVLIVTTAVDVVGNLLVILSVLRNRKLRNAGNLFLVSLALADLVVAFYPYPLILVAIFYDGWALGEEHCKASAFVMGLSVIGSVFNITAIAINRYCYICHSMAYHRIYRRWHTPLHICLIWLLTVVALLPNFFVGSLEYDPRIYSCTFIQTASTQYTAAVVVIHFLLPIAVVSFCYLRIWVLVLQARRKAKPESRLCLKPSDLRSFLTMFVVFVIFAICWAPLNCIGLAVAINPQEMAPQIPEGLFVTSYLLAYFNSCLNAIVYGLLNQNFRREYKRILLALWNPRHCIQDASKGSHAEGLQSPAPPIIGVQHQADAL

[4] = biological target: T3, human-cloned MT2 receptors (Homo sapiens, UniProt P49286); assay: cAMP assay in CHO cells expressing human-cloned MT2 (functional activity); type: cell-based; as to MT2 Activity: key: A = ago0nist; PA = partial agonist; ANT = antagonits
T3 construct: expressed in transfected cells
T3 sequence (P49286 1-362): T2 sequence (P49286 1-362)

human MT1 receptor = biological target: T4, human MT1 receptor (Homo sapiens, UniProt P48039); assay: 2-[125I]iodomelatonin competition binding, human MT1 in CHO cells; conditions: human MT1 stably expressed in CHO cells; calculated from IC50 by Cheng and Prusoff; read-out: MT1 pKi (converted)
T4 construct: expressed in transfected cells

[5] = 3 mg/kg s.c., listed as Ketoprofen
[6] = 3 mg/kg s.c., listed as ketoprofen

T1 sequence (P48039 whole entry): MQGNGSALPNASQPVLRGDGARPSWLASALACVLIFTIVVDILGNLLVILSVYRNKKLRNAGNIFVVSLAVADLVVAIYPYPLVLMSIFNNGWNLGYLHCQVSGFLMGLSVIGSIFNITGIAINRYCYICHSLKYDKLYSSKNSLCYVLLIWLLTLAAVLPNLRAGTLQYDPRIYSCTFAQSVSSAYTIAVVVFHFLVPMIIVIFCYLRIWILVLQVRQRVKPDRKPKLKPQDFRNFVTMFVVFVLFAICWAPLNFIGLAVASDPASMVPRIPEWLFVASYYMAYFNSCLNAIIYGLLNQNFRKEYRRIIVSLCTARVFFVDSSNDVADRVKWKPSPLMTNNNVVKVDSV
T4 sequence (P48039 whole entry): as above

CC(C(=O)O)c1cccc(C(=O)c2ccccc2)c1 (centres unmarked) [KET, Ketoprofen, reference compound]
licking time vs vehicle, first phase (Wistar rats [1]; 3 mg/kg s.c.): decreased the licking time | licking time vs vehicle, second phase (Wistar rats [1]; 3 mg/kg s.c.): decreased the licking time | licking time vs vehicle, total time (Wistar rats [1]; 3 mg/kg s.c.): decreased the licking time | licking time vs vehicle, first phase (Wistar rats [1]; [5]): decrease in the licking time | licking time vs vehicle, second phase (Wistar rats [1]; [5]): decrease of the licking time | licking time vs vehicle, total time (Wistar rats [1]; [5]): decrease in the licking time | licking time vs vehicle, first phase (Wistar rats [1]; [6]): decrease in the licking time | licking time vs vehicle, second phase (Wistar rats [1]; [6]): decrease of the licking time | licking time vs vehicle, total time (Wistar rats [1]; [6]): decrease in the licking time

CCC(=O)NC1Cc2ccccc2C(c2ccccc2)C1 (centres unmarked) [4P-PDOT, reference compound]
effect of pre-treatment with MT2 antagonist on antiallodynic effect of 5p ([2]; 4P-PDOT 10 mg/kg 10 min before 5p 20 mg/kg, 8 h of testing): blocked the effects of 5p

CC(=O)Nc1ccc(O)cc1 [ACE, Acetaminophen, reference compound]
withdrawal temperature vs vehicle (Wistar rats [3]; 200 mg/kg s.c., 1 hour post treatment): increased the withdrawal temperature | withdrawal temperature vs vehicle (Wistar rats [3]; 200 mg/kg s.c., 1 hour post treatment, listed as acetaminophen): increase of withdrawal temperature | withdrawal temperature vs vehicle (Wistar rats [3]; 200 mg/kg s.c., 4 hours post treatment): increased the withdrawal temperature | withdrawal temperature vs vehicle (Wistar rats [3]; 200 mg/kg s.c., 4 hours post treatment, listed as acetaminophen): increase the withdrawal temperature

NCC1(CC(=O)O)CCCCC1 [GBP, gabapentin, reference compound]
maximum withdrawal threshold increase ([2]; 100 mg/kg s.c., at 4 h): 420 % from basal | AUC of the antiallodynic effect across 8 h ([2]; 100 mg/kg s.c.): 249.33 ± 22.1 g

COc1ccc2[nH]cc(CCNC(C)=O)c2c1 [MLT, N-acetyl-5-methoxytryptamine, reference compound]
withdrawal temperature vs vehicle (Wistar rats [3]; 150 mg/kg s.c., 30 min post treatment): significant increase of the withdrawal temperature | withdrawal temperature vs vehicle (Wistar rats [3]; 150 mg/kg s.c., 1 hour post treatment): increase of withdrawal temperature; also recorded: increased the withdrawal temperature | withdrawal temperature vs vehicle (Wistar rats [3]; 150 mg/kg s.c., 4 hours post treatment): increase the withdrawal temperature | licking time vs vehicle, first phase (Wistar rats [1]; 150 mg/kg s.c.): decreased the licking time | licking time vs vehicle, second phase (Wistar rats [1]; 150 mg/kg s.c.): decrease of the licking time; also recorded: decreased the licking time | licking time vs vehicle, total time (Wistar rats [1]; 150 mg/kg s.c.): decrease in the licking time; also recorded: decreased the licking time | licking time vs vehicle, first phase (Wistar rats [1]; 150 mg/kg s.c., listed as Melatonin): decrease in the licking time | maximum increase in withdrawal threshold ([2]; 150 mg/kg s.c., at 2 h post-treatment): 335 % from baseline | AUC of the antiallodynic effect across 8 h ([2]; 150 mg/kg s.c.): 131.75±7.9 | effect on mechanical allodynia compared with GBP 100 mg/kg (SNI rats): lower magnitude than that produced by GBP

CC(=O)NCCN(c1ccccc1)c1cccc(OCCCCc2ccccc2)c1 [5i, N-{2-[(3-pheny/butoxyphenyl)-phenyl-amino]ethyl}acetamide]
activity for the MLT receptor subtype MT1 (in words) (human-cloned MT1; CHO cells): antagonist activity | MT1 Activity (human-cloned MT1; intrinsic activity, human MT1 in CHO cells): ANT | Ki (human MT2 receptor): 331 nM | activity for the MLT receptor subtype MT2 (in words) ([4]; CHO cells): antagonist activity | MT2 Activity ([4]; intrinsic activity, human MT2 in CHO cells): ANT | Ki (human MT1 receptor): 35.5 nM
